{"source": "patent US20260207718A1", "about": "“METHODS FOR TREATING LATE ONSET POMPE DISEASE IN PEDIATRIC PATIENTS” (Amicus Therapeutics, Inc., priority 2022, published 2026)", "key": {"[1]": {"test_system": "adult subjects with late-onset Pompe disease (LOPD)", "assay": "ATB200-03 (PROPEL) phase 3 trial", "conditions": "for absolute decline in percent-predicted FVC: 52 weeks; for mean change in total GSGC score: baseline to week 52, overall population", "source_text": "(§1) Efficacy assessments (i.e., functional assessments) included evaluation of ambulatory function (6 MWT), motor function tests (Gait, Stair, Gower, and Chair maneuver (GSGC) test and Timed Up and Go (TUG) test), muscle strength (manual muscle testing and quantitative muscle testing), and pulmonary function tests (FVC, SVC, MIP, MEP, and SNIP).\n(§2) The primary efficacy endpoint was the change from baseline to Week 52 in 6 MWD.\n(§3) Key secondary efficacy endpoints in a pre-specified hierarchical order of importance were as follows. These secondary endpoints were analyzed using analysis of covariance (ANCOVA) model with last observation carried forward (ITT LOCF). • change from baseline to Week 52 in sitting FVC (% predicted) • change from baseline to Week 52 in the manual muscle test score for the lower extremities • change from baseline to Week 52 in the total score for the PROMIS—physical function • change from baseline to Week 52 in the total score for the PROMIS—fatigue • change from baseline to Week 52 in GSGC total score\n(§4) PROPEL was a 52-week, double-blind randomized global study designed to assess the efficacy, safety and tolerability of AT-GAA compared to the current standard of care, alglucosidase alfa, an enzyme replacement therapy (ERT).\n(§5) Patients enrolled in PROPEL were randomized 2:1 so that for every two patients randomized to be treated with AT-GAA, one was randomized to be treated with alglucosidase alfa."}, "Gaa KO mice [2]": {"test_system": "Gaa KO mice", "assay": "Co-administration of ATB200 and miglustat in Gaa KO mice (tissue glycogen, LAMP1, LC3, dysferlin)", "assay_type": "in vivo", "conditions": "FIG. 15B", "procedure": "The therapeutic effects of ATB200 and miglustat were evaluated and compared against those of Alglucosidase alfa in Gaa KO mice. For the study, male Gaa KO (3- to 4-month old) and age-matched wild-type (WT) mice were used. Alglucosidase alfa was administered via bolus tail vein intravenous (IV) injection. In the co-administration regimen, miglustat was administered via oral gavage (PO) 30 minutes prior to the IV injection of ATB200. Treatment was given biweekly. Treated mice were sacrificed after 14 days from the last administration and various tissues were collected for further analysis. Table 11 summarizes the study design:\nTissue glycogen content in tissues samples was determined using amyloglucosidase digestion, as discussed above.\nTissue samples were also analyzed for biomarker changes following the methods discussed in: Khanna R, et al. (2012), “The pharmacological chaperone AT2220 increases recombinant human acid α-glucosidase uptake and glycogen reduction in a mouse model of Pompe disease,” Plos One 7(7): e40776; and Khanna, R et al. (2014), “The Pharmacological Chaperone AT2220 Increases the Specific Activity and Lysosomal Delivery of Mutant Acid α-Glucosidase, and Promotes Glycogen Reduction in a Transgenic Mouse Model of Pompe Disease,” PLOS ONE 9(7): e102092."}, "[3]": {"test_system": "LOPD population (ERT-naïve and ERT-experienced)", "assay": "Indirect treatment comparison, multi-level network meta regression (ML-NMR)", "parameters": "species or system human", "conditions": "base-case scenario, sensitivity analysis (RCT data only)", "procedure": "Moreover, a comparison of three randomized clinical trials (LOTS: alglucosidase alfa vs placebo; COMET: avalglucosidase alfa vs alglucosidase alfa; and PROPEL: cipaglucosidase alfa/miglustat vs alglucosidase alfa) share 6 MWD and % predicted FVC as key primary or secondary endpoints. Using patient-level data from the PROPEL randomized clinical trial (RCT) plus aggregate published data from other RCTs, Phase I/II and open label extension trials, a multi-level network meta-regression was conducted, adjusting for various baseline covariates including previous ERT duration. The base case scenario had covariates resembling the PROPEL population (naïve and ERT-experienced) and analyzed 6 MWD and FVC change from baseline at 52 weeks. […]\nA systematic literature review (SLR) was conducted to identify relevant published clinical studies of ERTs in LOPD. Outcomes assessed were change from baseline in 6-minute walking distance (6 MWD) (m) and in forced vital capacity (FVC; % predicted) at week 52, acknowledged by clinicians, HTA agencies and payers as key LOPD trial endpoints. […]\nA base-case scenario was evaluated in which all covariates were set to the target population of the PROPEL trial. […]"}, "[4]": {"test_system": "adult subjects with late-onset Pompe disease (LOPD)", "conditions": "in vivo", "source_text": "as §1, §2, §3, §4, §5"}, "[5]": {"test_system": "subjects with late-onset Pompe disease (LOPD)", "conditions": "cited from earlier work"}, "Gaa KO mice [6]": {"test_system": "Gaa KO mice", "assay": "Single fiber analysis (LAMP1/LC3) of muscle fibers from Gaa KO mice", "assay_type": "in vivo", "description": "FIG. 17 depicts co-immunofluorescent staining of LAMP1 (green) (see for example, “B”) and LC3 (red) (see, for example, “A”) in single fibers isolated from the white gastrocnemius of Gaa KO mice treated with a vehicle, alglucosidase alfa, or ATB200. “C” depicts clearance of autophagic debris and absence of enlarged lysosome. A minimum of 30 fibers were examined from each animal.\nAs a result, a significant portion of muscle fibers analyzed (36-60%) from ATB200-treated mice appeared normal or near-normal."}, "pediatric LOPD patient": {"test_system": "pediatric LOPD patient", "conditions": "(failed); 20 mg/kg Q2W (M)"}, "CIMPR": {"biological_target": "CIMPR (Homo sapiens, UniProt P11717)", "sequence (P11717 41-2491, species assumed)": "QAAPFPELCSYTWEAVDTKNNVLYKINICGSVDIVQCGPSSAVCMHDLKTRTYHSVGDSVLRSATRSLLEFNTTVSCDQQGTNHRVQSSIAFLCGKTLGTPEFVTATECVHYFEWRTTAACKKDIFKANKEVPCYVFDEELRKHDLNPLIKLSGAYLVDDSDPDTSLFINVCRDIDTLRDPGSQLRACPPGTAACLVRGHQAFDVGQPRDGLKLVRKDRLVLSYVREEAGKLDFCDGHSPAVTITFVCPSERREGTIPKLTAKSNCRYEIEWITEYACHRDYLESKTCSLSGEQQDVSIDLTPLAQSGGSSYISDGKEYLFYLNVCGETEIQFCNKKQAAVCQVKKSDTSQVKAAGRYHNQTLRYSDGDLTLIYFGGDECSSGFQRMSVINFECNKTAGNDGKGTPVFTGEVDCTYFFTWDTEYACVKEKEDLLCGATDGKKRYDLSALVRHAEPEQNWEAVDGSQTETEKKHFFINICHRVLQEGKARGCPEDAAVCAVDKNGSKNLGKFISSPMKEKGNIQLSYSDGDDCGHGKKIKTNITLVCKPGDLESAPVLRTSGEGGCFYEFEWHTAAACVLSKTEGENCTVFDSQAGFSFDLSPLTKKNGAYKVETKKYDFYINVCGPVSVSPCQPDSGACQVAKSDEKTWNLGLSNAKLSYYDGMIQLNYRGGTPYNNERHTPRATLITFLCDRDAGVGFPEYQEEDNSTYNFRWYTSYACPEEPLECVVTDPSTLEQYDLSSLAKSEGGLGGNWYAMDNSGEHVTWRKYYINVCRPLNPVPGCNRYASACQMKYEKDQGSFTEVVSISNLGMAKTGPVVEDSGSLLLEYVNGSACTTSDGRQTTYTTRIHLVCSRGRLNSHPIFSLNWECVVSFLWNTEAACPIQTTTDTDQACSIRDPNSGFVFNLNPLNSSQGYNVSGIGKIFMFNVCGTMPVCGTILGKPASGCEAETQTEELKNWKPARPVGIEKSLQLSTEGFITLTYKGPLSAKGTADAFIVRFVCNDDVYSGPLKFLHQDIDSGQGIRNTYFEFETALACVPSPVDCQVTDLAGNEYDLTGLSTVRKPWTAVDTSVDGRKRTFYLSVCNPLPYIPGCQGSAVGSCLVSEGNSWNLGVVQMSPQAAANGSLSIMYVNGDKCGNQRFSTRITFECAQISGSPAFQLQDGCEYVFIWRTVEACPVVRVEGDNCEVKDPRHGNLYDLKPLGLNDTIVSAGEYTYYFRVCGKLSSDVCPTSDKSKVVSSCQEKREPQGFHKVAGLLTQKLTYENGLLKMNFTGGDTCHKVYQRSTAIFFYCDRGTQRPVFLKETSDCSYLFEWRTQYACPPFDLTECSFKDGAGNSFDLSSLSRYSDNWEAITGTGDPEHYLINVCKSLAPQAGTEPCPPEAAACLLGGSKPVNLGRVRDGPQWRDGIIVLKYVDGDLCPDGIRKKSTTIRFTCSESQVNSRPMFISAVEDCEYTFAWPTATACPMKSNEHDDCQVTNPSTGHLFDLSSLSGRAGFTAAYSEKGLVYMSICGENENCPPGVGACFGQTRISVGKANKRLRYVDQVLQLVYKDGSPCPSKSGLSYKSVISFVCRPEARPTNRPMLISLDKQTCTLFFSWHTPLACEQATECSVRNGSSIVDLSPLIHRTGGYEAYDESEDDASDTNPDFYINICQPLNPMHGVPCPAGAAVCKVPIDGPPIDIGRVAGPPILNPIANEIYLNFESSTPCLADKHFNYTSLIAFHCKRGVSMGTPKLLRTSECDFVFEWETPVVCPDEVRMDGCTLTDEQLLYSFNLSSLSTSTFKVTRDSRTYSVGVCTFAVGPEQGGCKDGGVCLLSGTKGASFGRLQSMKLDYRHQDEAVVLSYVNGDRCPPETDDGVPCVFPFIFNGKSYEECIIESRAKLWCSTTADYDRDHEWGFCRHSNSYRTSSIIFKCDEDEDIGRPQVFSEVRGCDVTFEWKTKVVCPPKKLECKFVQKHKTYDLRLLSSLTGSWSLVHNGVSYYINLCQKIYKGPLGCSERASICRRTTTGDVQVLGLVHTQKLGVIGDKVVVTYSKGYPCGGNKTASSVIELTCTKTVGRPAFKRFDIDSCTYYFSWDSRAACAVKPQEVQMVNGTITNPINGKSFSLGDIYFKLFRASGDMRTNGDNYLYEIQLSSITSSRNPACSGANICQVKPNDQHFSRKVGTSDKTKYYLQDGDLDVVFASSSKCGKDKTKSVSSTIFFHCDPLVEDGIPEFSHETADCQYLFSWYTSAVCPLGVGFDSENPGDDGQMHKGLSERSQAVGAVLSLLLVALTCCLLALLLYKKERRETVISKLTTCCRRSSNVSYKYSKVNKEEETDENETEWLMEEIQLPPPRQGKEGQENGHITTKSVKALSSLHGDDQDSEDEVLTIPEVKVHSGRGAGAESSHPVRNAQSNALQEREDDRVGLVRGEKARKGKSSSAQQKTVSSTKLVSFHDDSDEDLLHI", "assay": "CIMPR affinity chromatography (bound vs unbound rhGAA by GAA activity)", "assay_type": "binding", "description": "Multiple batches of the rhGAA according to the disclosure were produced in shake flasks and in perfusion bioreactors using CHO cell line GA-ATB200, the product of which is referred to as “ATB200.” Weak anion exchange (“WAX”) liquid chromatography was used to fractionate ATB200 rhGAA according to terminal phosphate and sialic acid. Elution profiles were generated by eluting the ERT with increasing amount of salt. The profiles were monitored by UV (A280 nm).\nTo evaluate the ability of the conventional rhGAAs in MYOZYME® and LUMIZYME® to interact with the CIMPR, the two conventional rhGAA preparations were injected onto a CIMPR affinity column (which binds rhGAA having M6P groups) and the flow through collected. The bound material was eluted with a free M6 gradient. Fractions were collected in 96-well plate and GAA activity assayed by 4MU-α-glucosidase substrate. The relative amounts of unbound (flow through) and bound (M6P eluted) rhGAA were determined based on GAA activity and reported as the fraction of total enzyme. […] Indeed, only 27% of the rhGAA in MYOZYME® and 22% of the rhGAA in LUMIZYME® contained M6P that can be productive to target it to the CIMPR on muscle cells."}}}
{"substance": "alglucosidase alfa", "values": [{"measurement": "absolute decline in percent-predicted FVC", "setting": "[1]; ERT switch patients", "result": 4.0, "unit": "%"}, {"measurement": "FVC, CFBL at Week 52", "setting": "[1]; ERT switch population", "result": "−4.0", "unit": "% predicted"}, {"measurement": "6MWD, CFBL at Week 52", "setting": "[1]; ERT switch population (n=95)", "result": 0.0, "unit": "m"}, {"measurement": "6MWD, CFBL at Week 52", "setting": "[1]; ERT treatment naive population", "result": 38, "unit": "m"}, {"measurement": "FVC, CFBL at Week 52", "setting": "[1]; ERT treatment naive population", "result": "−3.6", "unit": "% predicted"}, {"measurement": "6MWD, CFBL at Week 52", "setting": "[1]; ERT treatment naive population, listed as Alglucosidase alfa", "result": "+38.3 m"}, {"measurement": "mean urinary Glc4 concentration", "setting": "[1]; ERT-experienced patients, Week 52 (baseline 4.6 ATB200/miglustat, 7.2 alglucosidase alfa with placebo)", "result": 9.1, "unit": "mmol/mol"}, {"measurement": "mean change in CK (creatine kinase)", "setting": "[1]; after 52 weeks", "result": "+15.6%"}, {"measurement": "mean change (SD) in MMT score for lower extremities", "setting": "[1]; baseline to week 52", "result": "0.9 (2.58)"}, {"measurement": "mean change in total GSGC score", "setting": "[1]", "result": "worsening"}, {"measurement": "mean change in total GSGC score", "setting": "[1]; listed as alglucosidase alfa and placebo", "result": "0.77 (1.8)"}, {"measurement": "absolute decline in percent-predicted FVC", "setting": "[1]; combined population", "result": 4.0, "unit": "%"}, {"measurement": "mean change of urine Hex-4", "setting": "[1]; combined population, after 52 weeks", "result": "+11.0%"}, {"measurement": "6MWD, CFBL at Week 52", "setting": "[1]; overall ERT switch and ERT naïve population", "result": 7, "unit": "m"}, {"measurement": "6MWD, CFBL at Week 52", "setting": "[1]; overall ERT switch and ERT naïve population, listed as Alglucosidase alfa", "result": "+7.2 m"}, {"measurement": "FVC, CFBL at Week 52", "setting": "[1]; overall population", "result": "−4.0", "unit": "% predicted"}, {"measurement": "LC3 II level (western blot) / effect on autophagy", "setting": "Gaa KO mice [2]", "result": "modest"}, {"measurement": "relative effect for 6MWT and FVC", "setting": "[3]", "result": "numerically favourable versus placebo"}, {"measurement": "participants with infusion/injection associated reactions (IARs)", "setting": "[4]", "result": 26, "unit": "%"}, {"measurement": "patients who discontinued treatment due to an adverse event", "setting": "[4]", "result": 2.6, "unit": "%"}, {"measurement": "subjects who did not show an initial improvement during treatment", "setting": "[5]; 368 subjects with LOPD from published studies", "result": "> 30", "unit": "%"}, {"measurement": "duration of improvements in initial responders", "setting": "[5]; longer-term studies", "result": "approximately 2 years"}, {"measurement": "Fibers with Autophagy Buildup", "setting": "Gaa KO mice [6]", "result": ">90", "unit": "%"}, {"measurement": "Fibers with Normal or Near-normal Appearance", "setting": "Gaa KO mice [6]", "result": "<10", "unit": "%"}]}
{"substance": "MYOZYME®: conventional rhGAA product containing alglucosidase alfa (Sanofi Genzyme)", "values": [{"measurement": "6MWT", "setting": "pediatric LOPD patient", "result": 44.2, "unit": "m"}, {"measurement": "rhGAA that bound to the CIMPR", "setting": "CIMPR", "result": 27, "unit": "%"}, {"measurement": "rhGAA that did not bind to the CIMPR (fraction of total enzyme)", "setting": "CIMPR", "result": 73, "unit": "%"}, {"measurement": "lysosome size and autophagic buildup compared to vehicle-treated mice", "setting": "Gaa KO mice [6]; FIG. 17", "result": "did not show any significant difference"}]}
